Test results taken from ChEMBL document CHEMBL1141505, “Conformational significance of EH21A1-A4, phenolic derivatives of geldanamycin, for Hsp90 inhibitory activity” (Bioorg Med Chem Lett, 2008).

Columns and labels:
[1] = Binding affinity at purified Hsp90 by DELFIA assay
KPL4 [2] = experiment: Inhibition of Hsp90 in human KPL4 cells assessed as depletion of ErbB2 level after 40 hrs; format: cell-based
KPL4 [3] = experiment: Inhibition of Hsp90 in human KPL4 cells assessed as depletion of Raf-1 level after 40 hrs; format: cell-based
K562 = experiment: Induction of human K562 cells differentiation; format: functional, cell-based
HCT-116 = experiment: Growth inhibition of human HCT116 cells; format: functional
DLD-1 = experiment: Growth inhibition of human DLD1 cells; format: functional
A549 = experiment: Growth inhibition of human A549 cells; format: functional
[4] = Growth inhibition of human KPL4 cells; format: functional

EC50 [1] [nM] | EC50 (K562) [nM] | GI50 (HCT-116) [nM] | GI50 (DLD-1) [nM] | GI50 (A549) [nM] | SMILES | MEC (KPL4 [2]) [µM] | MEC (KPL4 [3]) [µM] | GI50 [4] [nM]
2.2 | 1900 | 780 | 2350 | 2730 | CO[C@H]1C[C@H](C)Cc2cc(O)cc(c2)NC(=O)/C(C)=C/CC[C@H](OC)[C@@H](OC(N)=O)/C(C)=C/[C@H](C)[C@H]1O | 1 | 1 | 730
14.7 | 11000 | > 10000 | > 10000 | > 10000 | CO[C@H]1C[C@H](C)Cc2cc(O)cc(c2)NC(=O)/C=C/CC[C@H](OC)[C@@H](OC(N)=O)/C(C)=C/[C@H](C)[C@H]1O | 3.3 | 3.3 | 3390
2.3 | 760 | 500 | 2080 | 2720 | COc1c(O)cc2cc1C[C@@H](C)C[C@H](OC)[C@H](O)[C@@H](C)/C=C(\C)[C@H](OC(N)=O)[C@@H](OC)CC/C=C(\C)C(=O)N2 [REBLASTATIN] | 0.33 | 0.33 | 450
57 |  | 21 | 37 | 64 | COC1=C2C[C@@H](C)C[C@H](OC)[C@H](O)[C@@H](C)/C=C(\C)[C@H](OC(N)=O)[C@@H](OC)/C=C\C=C(/C)C(=O)NC(=CC1=O)C2=O [GELDANAMYCIN] | 0.11 | 0.33 | 59

Second part, the molecule before the results:

SMILES | EC50 [1] [nM] | EC50 (K562) [nM] | GI50 (HCT-116) [nM] | GI50 (DLD-1) [nM] | GI50 (A549) [nM] | MEC (KPL4 [2]) [µM] | MEC (KPL4 [3]) [µM] | GI50 [4] [nM]
C=CCNC1=C2C[C@@H](C)C[C@H](OC)[C@H](O)[C@@H](C)/C=C(\C)[C@H](OC(N)=O)[C@@H](OC)/C=C\C=C(/C)C(=O)NC(=CC1=O)C2=O [TANESPIMYCIN] |  |  |  |  |  | 0.03 | 0.03 | 7
CO[C@H]1C[C@H](C)Cc2cc(cc(O)c2O)NC(=O)/C(C)=C/CC[C@H](OC)[C@@H](OC(N)=O)/C(C)=C/[C@H](C)[C@H]1O | 6 | 21000 | 8910 | 9400 | 10300 | 10 | 10 | 4330
COc1c2cc(cc1OC(C)=O)NC(=O)/C(C)=C/CC[C@H](OC)[C@@H](OC(N)=O)/C(C)=C/[C@H](C)[C@@H](O)[C@@H](OC)C[C@H](C)C2 | 20.8 | 230 | 610 | 3520 | 3550 | 0.33 | 0.11 | 180
C[C@@H]1C[C@H]2O[C@@H]2/C=C\C=C\C(=O)Cc2c(Cl)c(O)cc(O)c2C(=O)O1 [RADICICOL] | 0.8 |  | 58 | 76 | 110 |  |  | 
